Patent US11267859B2, “GM-CSF mimetics and methods of making and using same” (The Regents of the University of Colorado, a body corporate, priority 2017, dated 2022)

Tests used:
[1] = system: TF-1 cells; assay: ATPlite viability assay of GM-CSF-dependent TF-1 cells grown without GM-CSF; type: cell-based, human; settings: for GM-CSF receptor agonist activity (cell viability, ATPlite): TF-1 cells without GM-CSF, 1 nM, 10 nM or 50 nM; for activity as a GM-CSF mimetic/agonist: summary statement citing FIGS. 1A-1B, FIGS. 2A-2C
Method: FIGS. 1A-1B comprise bar graphs illustrating use of the ATPlite assay to examine the viability of the GM-CSF-dependent human erythroleukemic cell line TF-1 (Hansen, et al., 2008, Cell 134(3):496-507) treated with GM-CSF mimetics of the invention (M1, M5, or M6; 1 nM, 10, nM, or 50 nM). TF-1 cells grown in the absence of GM-CSF (control) served as a negative control, and TF-1 cells grown in the presence of GM-CSF (GM-CSF; 0.7 nM) served as a positive control. […] Error bars represent standard error of the mean. *** indicates P<0.0001, * indicates P≤0.03, compared to control.
In order to determine whether a synthetic fragment of GM-CSF or a construct comprising a combination of GM-CSF fragments linked together using PEG linkers is an agonist of the GM-CSF receptor, human cell lines dependent on GM-CSF for proliferation were employed: specifically, the human hematopoietic cell line TF-1 (Hansen, et al., 2008, Cell 134(3): 496-507) and the human cell line MOTE (Monfardini, et al., 2002, Curr Pharm Des 8(24):2185-2199) (both obtained from American Type Culture Collection, or ATCC).
In experiments with the TF-1 cell line, it was determined whether the GM-CSF mimetics of the invention were sufficient to support cell growth and viability in the absence of GM-CSF. Specifically, the cells were grown in medium without GM-CSF (control) as a negative control, in medium supplemented with GM-CSF (GM-CSF; 0.7 nM) as a positive control, or in medium supplemented with one of the GM-CSF mimetics of the invention (i.e., M1, M5, or M6; 1 nM, 10 nM, or 50 nM; FIGS. 1A-1B). Cell viability was measured using the ATPlite assay (PerkinElmer) to determine whether the GM-CSF mimetics of the invention were capable of maintaining the viability of TF-1 cells, which require GM-CSF, thus providing a measure of agonist activity.

[2] = system: TF-1 cells; assay: Live cell counts of GM-CSF-starved TF-1 cells by flow cytometry (DAPI); type: cell-based, human; settings: TF-1 starved of GM-CSF 24 h, FIG. 2A
Method: FIGS. 2A-2C illustrate results of experiments wherein the GM-CSF-dependent human erythroleukemic cell line TF-1 was starved of GM-CSF for 24 h prior to treatment with media containing GM-CSF, with medium containing a GM-CSF mimetic (M1, M5 or M6; 10 nM or 100 nM), or with control medium lacking GM-CSF. The cells were fed fresh medium each day to replenish indicated concentrations (10 nM or 100 nM). Live cell counts from 3-4 replicates were plotted for each of the different conditions in FIG. 2A. […] The plots were gated by front and side scatter for singlets, then gated by DAPI, wherein DAPI-positive cells were dead and DAPI-negative cells were alive, and front scatter for live cells indicated in the selected region with the cell numbers represented below the plots.
Evaluation of ability of the GM-CSF mimetics to support cell growth was carried out by measuring cell number and cell viability by flow cytometry. The TF-1 cell line was first starved of GM-CSF for 24 h, and then plated in various conditions. […] At 72 h post-treatment, the cells were treated with DAPI (1 μg/ml) to label the nuclei of dead cells and were analyzed on a Yeti cell analyzer from Propel Labs. […] Each dot represents an individual measured cell, and increased color by “heat map” indicates a large group of cells with overlapping DAPI and forward scatter area.

[3] = system: transgenic mice that express the human GM-CSF receptor (hGMR mice); assay: Blood neutrophil response in transgenic hGMR mice after subcutaneous injection for three days; type: in vivo, mouse; settings: s.c.; for percentage of neutrophils at 72 h versus 0 h (paired T-test): three days, P<0.0019 for GM-CSF, P<0.0052 for M6
Method: FIGS. 3A-3B comprise a plot illustrating % change in neutrophil levels in blood from transgenic hGMR mice (Nishijima, et al., 1995, Mol. Biol. Cell 6(5):497-508) treated with saline (3 days) as a negative control, with human GM-CSF (hGM-CSF, 5 μg/day×3 days) as a positive control, with the GM-CSF mimetic M1 (M1 5 μg/day×3 days), or with the GM-CSF mimetic M6 (M6, 5 μg/day×3 days) (FIG. 3A). Each connected symbol represents an individual hGMR mouse pre- and post-treatment (0 h and 72 h, respectively). Error bars represent standard error of the mean. […] To determine whether the PEG-based GM-CSF mimetics of the invention are active in vivo, the GM-CSF mimetic molecules M1 and M6 were tested in transgenic mice that express the human GM-CSF receptor and are responsive to human GM-CSF, referred to herein as hGMR mice (Nishijima, et al., 1995, Mol. Biol. Cell 6(5):497-508). The hGMR mice were tested for their responses to M1 or M6. Specifically, the study included four groups of mice: (1) hGMR mice injected subcutaneously with saline (n=4 mice) as a negative control (Saline); (2) hGMR mice injected subcutaneously with commercial human GM-CSF ([…]; n=13 mice) as a positive control, because these mice should respond to human GM-CSF; (3) hGMR mice injected subcutaneously with M1 (5 μg/animal/day; n=5 mice); and (4) hGMR mice injected subcutaneously with M6 (5 μg/animal/day; n=6 mice) for three days. Blood samples were collected before the mice received any injections of saline, human GM-CSF, M1, or M6, and blood samples were also collected after the three days of injections. The percentage of neutrophils present in the blood post-treatment was measured by counting from whole blood smears. FIG. 3A illustrates trends in the percentages of neutrophils in individual mice from each of the four groups; each connected symbol represents an individual hGMR mouse pre- and post-treatment (0 h and 72 h, respectively). FIG. 3B compares the changes in the percentage of neutrophils over the course of the treatment for each of the four groups.

| Substance | GM-CSF receptor agonist activity (cell viability, ATPlite) ([1]; 24 h post-treatment (FIG. 1A)) | GM-CSF receptor agonist activity (cell viability, ATPlite) ([1]; 48 h post-treatment (FIG. 1B)) | activity as a GM-CSF mimetic/agonist [1] | live cell counts versus negative control ([2]; 10 nM or 100 nM replenished daily, 72 h post-treatment) | percentage of neutrophils at 72 h versus 0 h (paired T-test) [3] | % change in neutrophils versus saline control group ([3]; 5 μg/animal/day for three days, student's T-test, P<0.046, FIG. 3B) | number of live cells versus control ([2]; 100 nM replenished daily, P<0.042) |
| --- | --- | --- | --- | --- | --- | --- | --- |
| QPWEHVNAIQEAR (SEQ ID NO: 7) [Mimetic M1] | GM-CSF receptor agonist activity | the agonist effect is also replicated | active as a GM-CSF mimetic/agonist | significant increase in the cell counts over the negative control |  |  |  |
| DFLLVIP (SEQ ID NO: 8) [Mimetic M2, human GM-CSF peptide fragment, aa 112-118 of mature GM-CSF] |  |  | active as a GM-CSF mimetic/agonist |  |  |  |  |
| QPWEHVNAIQEAR {PEG6} DFLLVIP {PEG6} QPWEHVNAIQEAR {PEG6} DFLLVIP [Mimetic M5] | GM-CSF receptor agonist activity | the agonist effect is also replicated |  |  |  |  |  |
| GM-CSF: granulocyte-macrophage colony-stimulating factor; commercial human GM-CSF used as positive control |  |  |  |  | statistically significantly higher at 72 h than at 0 h |  |  |
| QPWEHVNAIQEAR {PEG6} DFLLVIP {PEG6} DFLLVIP {PEG6} QPWEHVNAIQEAR [Mimetic M6] | GM-CSF receptor agonist activity | the agonist effect is also replicated |  |  | statistically significantly higher at 72 h than at 0 h | statistically significantly higher than that for the saline control group | significantly lower than control |
